Laboratory results published in US8173158B2, “Methods of treating gastrointestinal disorders independent of the intake of food” (Takeda Pharmaceuticals U.S.A., Inc., priority 2007, dated 2012).

Assay: Effect and timing of food on pharmacokinetics of TAK-390 after a single oral dose of TAK-390MR 90 mg (phase 1, 4-way crossover)
Assay type: in vivo, human
Settings: oral 90 mg dose with a high fat meal
Experimental: The purpose of this study was to evaluate the effect of food on the pharmacokinetics (PK) and pharmacodynamics (PD) of TAK-390 after a single oral dose of TAK-390 MR 90 mg, made as described in Example 1. This study was a phase 1, open-label, randomized, single-dose, 4-way crossover study conducted at a single center. Healthy adult subjects were randomized on Day 1 of Period 1 to 1 of 4 sequence groups that determined the order in which patients received the 4 different dosing regimens (See, Table 4, below). […] There was a minimum washout interval of at least 5 days between the last dose in a period and the first dose in the subsequent period. […] PK parameters for TAK-390 were estimated using standard noncompartmental methods and include: tlag=time delay between drug administration and first observed concentration above the lower limit of quantitation; tmax=time to reach the observed maximum plasma concentration; Cmax=observed maximum plasma concentration; and AUC=area under the plasma concentration vs time curve from time zero the last quantifiable concentration (AUCt) and from time zero to infinity (AUC∞).

increase in AUC∞: approximately 37% | increase in Cmax: approximately 37%
SMILES: Cc1c(OCC(F)(F)F)ccnc1C[S@@+]([O-])c1nc2ccccc2[nH]1 [dexlansoprazole]
